Measurements reported in ChEMBL document CHEMBL2380220, “Cytotoxic azaphilone alkaloids from Chaetomium globosum TY1” (Bioorg Med Chem Lett, 2013).

Each compound was assayed on HepG2 (assay: Cytotoxicity against human HepG2 cells after 72 hrs by SRB assay). Conditions: HepG2, 72 h.
Format: functional, cell-based

SMILES | IC50 [µM]
CC[C@H](C)/C=C/C1=CC2=C(Cl)C(=O)[C@@]3(C)OC(=O)C(C(=O)[C@H](C)[C@@H](C)O)=C3C2=CO1 | 35.3
C/C=C(\C)C(=O)C1=C2C3=CN(CCCC(=O)O)C(/C=C/[C@@H](C)CC)=CC3=C(Cl)C(=O)[C@@]2(C)OC1=O | 1.7
C/C=C(\C)C(=O)C1=C2C3=CN(CCO)C(/C=C/[C@@H](C)CC)=CC3=C(Cl)C(=O)[C@@]2(C)OC1=O | 19.8
CC[C@H](C)/C=C/C1=CC2=C(Cl)C(=O)[C@@]3(C)OC(=O)C(C(=O)[C@H](C)[C@@H](C)O)=C3C2=CN1CCO | 53.4
CC[C@H](C)/C=C/C1=CC2=C(Cl)C(=O)[C@@]3(C)OC4(O)C(C(=O)O[C@@H](C)[C@@H]4C)C3C2=CO1 (some centres not stated) | > 100
CC[C@@]1(O)C(=O)OCc2c1cc1n(c2=O)Cc2cc3ccccc3nc2-1 [CAMPTOTHECIN] | 32.3
C/C=C(\C)C(=O)C1=C2C3=COC(/C=C/[C@@H](C)CC)=CC3=C(Cl)C(=O)[C@@]2(C)OC1=O [CHAETOVIRIDIN E] | 40.6
